Our source for the IC50 values is patent publication US7517998B2, “Non nucleoside reverse transcriptase inhibitors” (priority 2004, dated 2009).

This test addresses T1, K103NNY181C mutant reverse transcriptase (Human immunodeficiency virus type 1 group M subtype B, UniProt P04585, K690N/Y768C).
T1 construct: mutations that occur in the reverse transcriptase segment of the pol gene
Briefly: Reverse transcriptase enzymatic assay (PicoGreen), K103N/Y181C mutant RT. The note with it: enzymatic assay of Example 24. The class given is biochemical, HIV-1. The method, boiled down: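 HIV-1 RT (2.5 nM final) pre-incubated 15 min at room temperature with inhibitor, then reacted 50 min at 37 °C with poly rC 45 nM, dG15 4.5 nM, dGTP 3.6 μM in Tris/HCl pH 7.8, 1% DMSO. Final inhibitor 10 μM to 0.508 nM; EDTA-quenched, PicoGreen fluorescence read at 485/520 nm.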

Where [1] appears, read: IC50 mut, K103N/Y181C mutant reverse transcriptase.
Setting [2] is: IC50 mut, mutant reverse transcriptase.
Setting [3] is: IC50 mut (nM), mutant (K103N/Y181C) reverse transcriptase.

The IC50 is the point on the concentration scale where inhibition reaches its midpoint. Compound `CC(C)(C#Cc1ccc(NC(=O)CSc2nnnn2-c2ccc(C3CC3)cc2Cl)c(Cl)c1)NC(=O)c1cc[n+]([O-])cc1` [Compound 4086] returned a half-maximal inhibitory concentration (IC50) under setting [1] of 12 nM. In turn, `CC(C)(C#Cc1ccc(NC(=O)CSc2nnnn2-c2ccc(C3CC3)cc2Cl)c(Cl)c1)OCCN1CCCCC1` [Compound 4103] came in with an IC50 under setting [1] of 218 nM. Under setting [1], `CC(C)(C#Cc1ccc(NC(=O)CSc2nnnn2-c2cc(C(C)(C)C)ccc2Cl)c(Cl)c1)NC(=O)CN1CCC(C(=O)O)CC1` [Compound 4204] showed a 50% inhibitory concentration (IC50) of 35 nM. Still for that read-out and setting: under `CC(C)(O)C#Cc1ccc(NC(=O)CSc2nnnn2-c2cc(F)cc(C(F)(F)F)c2Cl)c(Cl)c1` [Compound 4029] stands 212 nM. Regarding `O=C(O)Cc1ccc(-c2ccc(NC(=O)CSc3nnnn3-c3ccc4ncsc4c3Cl)c(Cl)c2)cc1` [Compound 2035], under setting [2], the half-maximal inhibitory concentration (IC50) is 269 nM. Still for that read-out and setting: under `CN(C)c1ccc(NC(=O)COc2ccc(NC(=O)CSc3nnnn3-c3ccc(C(C)(C)C)cc3Cl)c(Cl)c2)cc1` [Compound 5012] stands 466 nM. Regarding `CC(C)(C#Cc1ccc(NC(=O)CSc2nnnn2-c2ccc(C3CC3)cc2Cl)c(Cl)c1)NC(=O)CNCCCn1ccnc1` [Compound 4127], the IC50 under setting [1] was 20.5 nM.

As to `Cc1nnc(SCC(=O)Nc2ccc(-c3ccc(OCCN4CCCC4)cc3)cc2Cl)n1-c1ccc(C2CC2)cc1Cl` [Compound 1014], the IC50 under setting [2] turned out to be 81 nM. In the case of `CC(C)(O)C#Cc1ccc(NC(=O)CSc2nnnn2-c2cc3c(cc2Cl)CCC3)c(Cl)c1` [Compound 4065], under setting [1], the IC50 was 13.5 nM.

As for `Cc1cc(C#CC(C)(C)C(=O)O)ccc1NC(=O)CSc1nnnn1-c1ccc(C(C)(C)C)cc1Cl` [Compound 4057], the IC50 under setting [1] was 96 nM.

`CC(C)(C)c1ccc(-n2nnnc2SCC(=O)Nc2ccc(NC(=O)Nc3ccc(C(=O)O)cc3)cc2Cl)c(Cl)c1` [Compound 7009] came in with an IC50 under setting [3] of 43 nM. Under setting [2], `O=C(CSc1nnnn1-c1ccc(C2CC2)cc1Cl)Nc1ccc(S(=O)(=O)N2CCC(C(=O)O)CC2)cc1Cl` [Compound 3042] had an IC50 of 387 nM. With `CC(C)(C)c1ccc(-n2nnnc2SCC(=O)Nc2ccc(NC(=O)Cc3ccccc3[N+](=O)[O-])cc2Cl)c(Cl)c1` [Compound 7019], the IC50 under setting [3] was 25 nM.

On to `COC(=O)/C=C/c1ccc(NC(=O)CSc2nnnn2-c2ccc(C)cc2Cl)c(Cl)c1` [Compound 3005], for which the IC50 under setting [2] is 305 nM. Turning to `Cc1cc(-n2nnnc2SCC(=O)Nc2ccc(C#CC(C)(C)O)cc2Cl)c(Cl)c(C(F)(F)F)c1` [Compound 4031], under setting [1], the IC50 is 264 nM. `CC(C)(C)c1ccc(-n2nnnc2SCC(=O)Nc2ccc(NC(=O)Cc3cccc([N+](=O)[O-])c3)cc2Cl)c(Cl)c1` [Compound 7017] registered an IC50 under setting [3] of 170 nM.

The compound `O=C(CSc1nnnn1-c1ccc(C2CC2)cc1Cl)Nc1ccc(C#CC2(CN3CCCC3)CC2)cc1Cl` [Compound 4092] displayed a half-inhibitory concentration (IC50) under setting [1] of 61.5 nM. `CC(C)(C)c1ccc(-n2nnnc2SCC(=O)Nc2ccc(NC(=O)Cc3ccncc3)cc2Cl)c(Cl)c1` [Compound 7030]: under setting [3], half-maximal inhibition (IC50) was put at 38 nM. Regarding `Cc1ccc(-n2nnnc2SCC(=O)Nc2ccc(-c3c[nH]cn3)cc2Cl)c(Cl)c1` [Compound 3018], the IC50 under setting [2] was found to be 269 nM.

In turn, `CC(C)(O)C#Cc1ccc(NC(=O)CSc2nnnn2-c2cc(Cl)c(C3CC3)cc2Cl)c(Cl)c1` [Compound 4070] displayed a 50% inhibitory concentration (IC50) under setting [1] of 82.5 nM. Turning to `CC(C)(N)C#Cc1ccc(NC(=O)CSc2nnnn2-c2cc(C(C)(C)C)cc(Br)c2Cl)c(Cl)c1` [Compound 4221], the IC50 under setting [1] is 108 nM. On to `CC(C)(C#Cc1ccc(NC(=O)CSc2nnnn2-c2ccc(C3CC3)cc2Cl)c(Cl)c1)OCCN1CCS(=O)(=O)CC1` [Compound 4241], for which half-maximal inhibition under setting [1] (IC50) was put at 30.5 nM. Under setting [2], `Cc1cc(C)c(-n2nnnc2SCC(=O)Nc2ccc(-c3ccc(C(C)(C)C(=O)O)cc3)cc2Cl)c(Cl)c1` [Compound 2025] gave an IC50 of 42 nM. The same measure, in the same setting: then `CC(C)(C)c1ccc(-n2nnnc2SCC(=O)Nc2ccc(C(=O)NCCC(=O)O)cc2Cl)c(Cl)c1` [Compound 6024], with 41 nM. `Cc1ccc(-n2nncc2SCC(=O)Nc2ccc(-c3ccc(CC(=O)O)cc3)cc2Cl)c(Cl)c1` [Compound 1005]: the midpoint of inhibition under setting [2], the IC50, lay at 730 nM. In turn, `Cc1ccc(-c2ncsc2SCC(=O)Nc2ccc(-c3ccc(CC(=O)O)cc3)cc2Cl)c(Cl)c1` [Compound 1002] returned an IC50 under setting [2] of 795 nM. Compound `CC(C)(C#Cc1ccc(NC(=O)CSc2nnnn2-c2ccc(C(C)(C)C)cc2Cl)c(Cl)c1)OCC(=O)NCCO` [Compound 4048] displayed a half-maximal inhibitory concentration (IC50) under setting [1] of 26 nM. Still for that read-out and setting: under `CC(C)(C)c1ccc(-n2nnnc2SCC(=O)Nc2ccc(C#CCCCCO)cc2Cl)c(Cl)c1` [Compound 4003] stands 643 nM; under `CC(C)(C#Cc1ccc(NC(=O)CSc2nnnn2-c2cc(Br)ccc2Cl)c(Cl)c1)NC(=O)c1cc[n+]([O-])cc1` [Compound 4222], 11.5 nM; under `CC(C)(C#Cc1ccc(NC(=O)CSc2nnnn2-c2ccc(C(C)(C)C)cc2Cl)c(Cl)c1)OCC(=O)Nc1ccc(C(=O)O)cc1` [Compound 4045], 32 nM.

`CC(C)(C)c1ccc(-n2nnnc2SCC(=O)Nc2ccc(OCC(=O)NCc3ccc(N)cc3)cc2Cl)c(Cl)c1` [Compound 5026] had a half-inhibitory concentration (IC50) under setting [2] of 86 nM.

In turn, `CC(C)(C)c1ccc(-n2nnnc2SCC(=O)Nc2ccc(OCC(=O)Nc3ccc(O)cc3)cc2Cl)c(Cl)c1` [Compound 5013] yielded an IC50 under setting [2] of 150 nM. In turn, `CN(C)CCCC(=O)NC(C)(C)C#Cc1ccc(NC(=O)CSc2nnnn2-c2ccc(C3CC3)cc2Cl)c(Cl)c1F` [Compound 4156] gave an IC50 under setting [1] of 36.5 nM. Take `CC(C)(C)c1ccc(-n2nnnc2SCC(=O)Nc2ccc(-c3ccc(OCC(=O)O)cc3F)cc2Cl)c(Cl)c1` [Compound 3020]: under setting [2], half-maximal inhibition (IC50) was put at 23 nM. Under setting [1], `CN1CCN(CCOC(C)(C)C#Cc2ccc(NC(=O)CSc3nnnn3-c3ccc(C4CC4)cc3Cl)c(Cl)c2)CC1` [Compound 4105] returned an IC50 of 66.5 nM. The compound `CC(C)(C#Cc1ccc(NC(=O)CSc2nnnn2-c2ccc(C3CC3)cc2Cl)c(Cl)c1)NCc1cc[n+]([O-])cc1` [Compound 4186] gave an IC50 under setting [1] of 12 nM.

With `CC(C)(C#Cc1ccc(NC(=O)CSc2nnnn2-c2ccc(C3CC3)cc2Cl)c(Cl)c1)NC(=O)CCC(=O)O` [Compound 4238], the concentration for half-maximal inhibition (IC50) under setting [1] was determined as 7.8 nM.

Compound `CC(C)(C#Cc1ccc(NC(=O)CSc2nnnn2-c2ccc(C3CC3)cc2Cl)c(Cl)c1)C(=O)NC(C)(C)C(=O)O` [Compound 4144] showed an IC50 under setting [1] of 81 nM.

Turning to `CC(C)(C#Cc1ccc(NC(=O)CSc2nnnn2-c2ccc(C3CC3)cc2Cl)c(Cl)c1F)OCCOc1ccncc1` [Compound 4165], under setting [1], it took 67.5 nM to reach half-maximal inhibition (IC50). On the same count and under the same terms, then `CN1CCN(CC2(C#Cc3ccc(NC(=O)CSc4nnnn4-c4ccc(C5CC5)cc4Cl)c(Cl)c3)CC2)CC1` [Compound 4094], with 48.5 nM; and `CC(C)(C#Cc1ccc(NC(=O)CSc2nnnn2-c2cc(C(C)(C)C)ccc2Cl)c(Cl)c1)NC(=O)c1cc[n+]([O-])cc1` [Compound 4205], with 28.5 nM; and `CN1CCN(CC#Cc2ccc(NC(=O)CSc3nnnn3-c3ccc(C(C)(C)C)cc3Cl)c(Cl)c2)CC1` [Compound 4015], with 40 nM. Compound `Cc1cc(C(F)(F)F)cc(-n2nnnc2SCC(=O)Nc2ccc(C#CC(C)(C)C(=O)O)cc2Cl)c1Cl` [Compound 4058] displayed an IC50 under setting [1] of 63 nM. Turning to `CC(C)(C#Cc1ccc(NC(=O)CSc2nnnn2-c2ccc(C3CC3)cc2Cl)c(Cl)c1)C(=O)NCCCN1CCCC1=O` [Compound 4152], the IC50 under setting [1] was determined as 36.5 nM.
